Test results taken from article PMC7532004, “Site-specific effects of neurosteroids on GABAA receptor activation and desensitization” (eLife, 2020).

Target: T1, α1β3 GABAAR (α1His-FLAGβ3) (Homo sapiens, UniProt P14867+P28472)
T1 construct: inserted between the fourth and fifth residues of the mature peptide; photolabeling full-length heteropentameric GABAARs in native membranes; expressed in transfected cells
T1 sequence (P14867 28-456): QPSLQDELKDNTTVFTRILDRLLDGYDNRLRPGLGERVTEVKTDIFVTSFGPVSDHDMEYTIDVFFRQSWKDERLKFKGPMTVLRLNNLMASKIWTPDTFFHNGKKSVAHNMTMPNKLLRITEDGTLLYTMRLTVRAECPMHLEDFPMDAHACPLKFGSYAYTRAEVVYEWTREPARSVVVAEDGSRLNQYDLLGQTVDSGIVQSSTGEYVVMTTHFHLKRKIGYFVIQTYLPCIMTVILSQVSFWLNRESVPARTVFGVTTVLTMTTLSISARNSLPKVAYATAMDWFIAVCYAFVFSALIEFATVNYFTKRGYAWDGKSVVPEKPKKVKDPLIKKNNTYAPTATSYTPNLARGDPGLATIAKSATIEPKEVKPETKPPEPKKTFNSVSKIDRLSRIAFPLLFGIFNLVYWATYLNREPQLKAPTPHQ
T1 sequence (P28472 26-473): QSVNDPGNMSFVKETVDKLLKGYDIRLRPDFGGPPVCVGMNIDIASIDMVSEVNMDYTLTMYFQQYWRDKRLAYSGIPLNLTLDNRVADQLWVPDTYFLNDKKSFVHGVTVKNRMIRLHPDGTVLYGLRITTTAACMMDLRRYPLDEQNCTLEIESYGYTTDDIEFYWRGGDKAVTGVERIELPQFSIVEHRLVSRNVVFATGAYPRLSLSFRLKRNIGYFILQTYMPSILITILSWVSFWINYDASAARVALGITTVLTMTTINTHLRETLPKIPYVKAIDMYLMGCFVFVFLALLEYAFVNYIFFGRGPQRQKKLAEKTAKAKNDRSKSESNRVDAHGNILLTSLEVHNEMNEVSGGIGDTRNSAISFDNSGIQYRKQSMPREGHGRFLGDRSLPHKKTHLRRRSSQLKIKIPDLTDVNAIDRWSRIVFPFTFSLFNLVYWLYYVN
Experiment: Neurosteroid photolabeling and competition, middle-down mass spectrometry
Assay type: binding
Settings: for Prevention of KK200 photolabeling of α1N408 in the α1 intrasubunit site / Prevention of KK200 photolabeling of β3G308 in the intersubunit site: 3 μM KK200; for Photolabeling efficiency of α1 subunit TM4 (Y415, α1 intrasubunit site) / Photolabeling efficiency of β3 subunit TM4 peptide (β3 intrasubunit site): 30 μM photolabeling reagent
Method: The syntheses of neurosteroid photolabeling reagents (KK148, KK150, KK200, KK123) are detailed in previous reports ([Jiang et al., 2016]; [Cheng et al., 2018]). […] For the photolabeling competition experiments, 3 μM KK200 or KK123 in the presence of 30 μM competitor (3α5αP, KK148, KK150, and 3β5αP) or the same volume of ethanol was added to the membrane proteins and incubated on ice for 1 hr. The samples were then irradiated in a quartz cuvette for 5 min, by using a photoreactor emitting light at >320 nm. The membrane proteins were then collected by centrifugation at 20,000 g at 4°C for 45 min. The photolabeled membrane proteins were resuspended in lysis buffer containing 1% n-dodecyl-β-D-maltoside (DDM), 0.25% cholesteryl hemisuccinate (CHS), 50 mM Tris (pH 7.5), 150 mM NaCl, 2 mM CaCl2, 5 mM KCl, 5 mM MgCl2, 1 mM EDTA, 10% glycerol at a final concentration of 1 mg/ml. The membrane protein suspension was homogenized using a glass mortar and a Teflon pestle and incubated at 4°C overnight. The protein lysate was centrifuged at 20,000 g at 4°C for 45 min and supernatant was incubated with 0.5 ml anti-FLAG agarose (Sigma) at 4°C for 2 hr. The anti-FLAG agarose was then transferred to an empty column, followed by washing with 20 ml washing buffer (50 mM triethylammonium bicarbonate and 0.05% DDM). The GABAARs were eluted with aliquots of 200 μg/ml FLAG tag peptide and 100 μg/ml 3X FLAG (ApexBio) in the washing buffer. The pooled eluates (9 ml) containing GABAARs were concentrated to 100 μl using 100 kDa cut-off centrifugal filters.
The purified α1β3 GABAAR (100 μl) was reduced with 5 mM tris(2-carboxyethyl)phosphine for 1 hr, alkylated with 5 mM N-ethylmaleimide (NEM) for 1 hr, and quenched with 5 mM dithiothreitol (DTT) for 15 min. These three steps were done at RT. Samples were then digested with 8 μg of trypsin for 7 days at 4°C to obtain maximal recovery of TMD peptides. The digestions were terminated by adding formic acid in a final concentration of 1%, followed directly by LC-MS analysis on an Orbitrap Elite mass spectrometer. 20 μl samples were injected into a home-packed PLRP-S (Agilent, Santa Clara, CA) column (10 cm ×75 μm, 300 Å), separated with a 145 min gradient from 10% to 90% acetonitrile, and introduced to the mass spectrometer at 800 nl/min with a nanospray source. MS acquisition was set as a MS1 Orbitrap scan (resolution of 60,000) followed by top 20 MS2 Orbitrap scans (resolution of 15,000) using data-dependent acquisition, and exclusion of singly charged precursors. Fragmentation was performed using high-energy dissociation with normalized energy of 35%. Analysis of data sets was performed using Xcalibur (Thermo Fisher Scientific) to manually search for TM1, TM2, TM3 or TM4 tryptic peptides with or without neurosteroid photolabeling modifications. Photolabeling efficiency was estimated by generating extracted chromatograms of unlabeled and labeled peptides, determining the area under the curve, and calculating the abundance of labeled peptide/(unlabeled + labeled peptide). Analysis of statistical significance comparing the photolabeling efficiency of KK200 and KK123 for α1β3 GABAAR was determined using one-way ANOVA with Bonferroni's multiple comparisons test and paired t-test, respectively (Prism 6, GraphPad Software, San Diego, CA). MS2 spectra of photolabeled TMD peptides were analyzed by manual assignment of fragment ions with and without photolabeling modification. Fragment ions were accepted based on the presence of a monoisotopic mass within 20 ppm mass accuracy. In addition to manual analysis, PEAKS (Bioinformatics Solutions Inc, Waterloo, ON, Canada) database searches were performed for data sets of photolabeled α1β3 GABAAR. […]

Row | SMILES | Prevention of KK200 photolabeling of α1N408 in the α1 intrasubunit site (30 μM competitor) | Prevention of KK200 photolabeling of β3G308 in the intersubunit site (30 μM competitor) | Photolabeling efficiency of α1 subunit TM4 (Y415, α1 intrasubunit site) [%] | Photolabeling efficiency of β3 subunit TM4 peptide (β3 intrasubunit site) [%] | Inhibition of KK123 photolabeling at the α1 (α1Y415) and β3 (β3Y442) intrasubunit sites (30 μM competitor, 3 μM KK123)
1 | C#CCCO[C@H]1CC[C@H]2[C@@H]3CC[C@H]4CC5(CC[C@]4(C)[C@H]3CC[C@]12C)N=N5 [KK148] | prevented | prevented | 0.77 | 0.13 | –
2 | C#CCCO[C@@H]1CC[C@H]2[C@@H]3CC[C@H]4CC5(CC[C@]4(C)[C@H]3CC[C@]12C)N=N5 [KK150] | prevented | prevented | 0.62 | 0.19 | –
3 | CC(=O)[C@H]1CC[C@H]2[C@@H]3CC[C@H]4C[C@@H](O)CC[C@]4(C)[C@H]3CC[C@]12C [3β5αP, epi-allopregnanolone] | prevented | does not bind to the intersubunit site | – | – | completely inhibited
4 | CC(=O)[C@H]1CC[C@H]2[C@@H]3CC[C@H]4C[C@H](O)CC[C@]4(C)[C@H]3CC[C@]12C [3α5αP, allopregnanolone] | prevented | prevented | – | – | –
